The values that follow are results of earlier work, collected in patent publication US20220211687A1, “USE OF ARIMOCLOMOL IN THE TREATMENT OF NIEMANN PICK DISEASE” (Orphazyme A/S, priority 2020, published 2022).

The test system of the data set is Niemann—Pick disease type C (NPC). Particulars: background statement; cited from earlier work.

Turning to `CCCCN1C[C@H](O)[C@@H](O)[C@H](O)[C@H]1CO` [miglustat, (2R,3R,4R,5 S)-1-butyl-2-(hydroxymethyl)piperidine-3 ,4,5-triol], the “Effect on slowing NPC disease progression” value is given as “only a modest effect on slowing disease progression”.
